Article PMC3961306, “Comparison of the Cancer Gene Targeting and Biochemical Selectivities of All Targeted Kinase Inhibitors Approved for Clinical Use” (PLoS ONE, 2014)

Tests used:
[1] = molecular target: panel of more than 300 wild-type and mutant kinases (313 kinase panel) (Homo sapiens, UniProt P68400); experiment: Kinase profiling in a biochemical assay panel (mobility shift assays and ELISA), %-inhibition at 1 μM; selectivity entropy; settings: kinase CK2α1/β; 1 μM compound
[2] = molecular target: panel of more than 300 wild-type and mutant kinases (313 kinase panel) (Homo sapiens, UniProt Q13464); experiment: as above; settings: kinase ROCK1; 1 μM

With Cc1nc(Nc2ncc(C(=O)Nc3c(C)cccc3Cl)s2)cc(N2CCN(CCO)CC2)n1 [dasatinib] the “%-inhibition, CK2α1/β” value [1] was -1.7%.

For CCN(CC)CCNC(=O)c1c(C)[nH]c(/C=C2\C(=O)Nc3ccc(F)cc32)c1C [sunitinib], the “%-inhibition of ROCK1” value [2] was 9% and the “%-inhibition, CK2α1/β” value [1] was -21%.
